Assay results as given in ChEMBL document CHEMBL6109137, “Design, Synthesis, Evaluation, and SAR of 5-Phenylisoindoline Derivatives, a Potent Class of Small-Molecule Inhibitors Targeting the Programmed Cell Death-1/Programmed Cell Death-Ligand 1 (PD-1/PD-L1) Interaction” (J Med Chem, 2025).
Activity calls are given as the source filed them. No cut-off for these calls is given here.

What was measured:
[1] = Cytotoxicity against human PBMC cells assessed as inhibition of cell viability by CCK8 assay; type: toxicity, cell-based
[2] = Toxicity in C57BL/6J mouse implanted with mouse MC38 cells assessed as injury in liver at 5 to 20 mg/kg, ip qd for 13 days by H and E staining based analysis; type: organism-based; conditions: in vivo, 312 h, dose 5-20 mg/kg, time 13 day
[3] = Toxicity in C57BL/6J mouse implanted with mouse MC38 cells assessed as injury in lung at 5 to 20 mg/kg, ip qd for 13 days by H and E staining based analysis; type: organism-based; conditions: in vivo, 312 h, dose 5-20 mg/kg, time 13 day
[4] = Toxicity in C57BL/6J mouse implanted with mouse MC38 cells assessed as injury in kidney at 5 to 20 mg/kg, ip qd for 13 days by H and E staining based analysis; type: organism-based; conditions: in vivo, 312 h, dose 5-20 mg/kg, time 13 day
[5] = system: MC-38; assay: Antitumor activity against mouse MC38 cells implanted in C57BL/6J mouse assessed as increase in infiltration of CD8+ T cells at 5 to 20 mg/kg, ip qd for 13 days by IHC analysis; type: functional, organism-based; conditions: dose 5-20 mg/kg, time 13.0 day
[6] = system: MC-38; assay: Antitumor activity against mouse MC38 cells implanted in C57BL/6J mouse at 160 mg/kg, IG qd for 7 days relative to control; type: functional; conditions: MC-38, po, 168 h, time 7 day, read-out: TGI
[7] = Toxicity in C57BL/6J mouse implanted with mouse MC38 cells assessed as lung weight ratio at 40 to 160 mg/kg, IG qd for 7 days; type: organism-based; conditions: in vivo, po, 168 h, dose 40-160 mg/kg, time 7 day
[8] = Toxicity in C57BL/6J mouse implanted with mouse MC38 cells assessed as change in HCT count at 40 to 160 mg/kg, IG qd for 7 days; type: organism-based; conditions: in vivo, po, 168 h, dose 40-160 mg/kg, time 7 day

With C[C@H](N)C(=O)N1Cc2ccc(-c3cccc(-c4ccc5c(c4)OCCO5)c3Cl)cc2C1.Cl the IC50 [1] was > 5 µM, the Activity [2] was “Non-toxic” and the Activity [3] was “Non-toxic”. The Activity [4] was “Non-toxic”, the Activity [5] was “Active” and the inhibition in vivo at 160 mg/kg [6] was 64.4%. The Activity [7] was “Non-toxic” and the Activity [8] was “Non-toxic”.
